{"source": "patent US6352958B1", "about": "“Cycloimido-substituted benzofused heterocyclic herbicides” (FMC Corporation, priority 1997, dated 2002)", "key": {"[1]": {"test_system": "soybean (Glycine max var. Winchester)", "assay": "Preemergence herbicidal activity, soybean", "assay_type": "in vivo", "details": "Glycine max, pre-emergence, Rate of Application 0.3 Kg/Ha, examined after 12-17 days, read-out: PREEMERGENCE HERBICIDAL ACTIVITY (% CONTROL) SOY"}, "[2]": {"test_system": "wheat (Triticum aestivum var. Lew)", "assay": "Preemergence herbicidal activity, wheat", "assay_type": "in vivo", "details": "Triticum aestivum, pre-emergence, Rate of Application 0.3 Kg/Ha, examined after 12-17 days, read-out: PREEMERGENCE HERBICIDAL ACTIVITY (% CONTROL) WHT"}, "[3]": {"test_system": "field corn (Zea mays var. Pioneer 3732)", "assay": "Preemergence herbicidal activity, corn", "assay_type": "in vivo", "details": "Zea mays, pre-emergence, Rate of Application 0.3 Kg/Ha, examined after 12-17 days, read-out: PREEMERGENCE HERBICIDAL ACTIVITY (% CONTROL) CRN"}, "[4]": {"test_system": "velvetleaf (Abutilon theophrasti)", "assay": "Preemergence herbicidal activity, velvetleaf", "assay_type": "in vivo", "details": "Abutilon theophrasti, pre-emergence, Rate of Application 0.3 Kg/Ha, examined after 12-17 days, read-out: PREEMERGENCE HERBICIDAL ACTIVITY (% CONTROL) ABUTH"}, "[5]": {"test_system": "morningglory (Ipomea lacunosa or Ipomea hederacea)", "assay": "Preemergence herbicidal activity, morningglory", "assay_type": "in vivo", "details": "Ipomoea, pre-emergence, Rate of Application 0.3 Kg/Ha, examined after 12-17 days, read-out: PREEMERGENCE HERBICIDAL ACTIVITY (% CONTROL) IPOSS"}, "[6]": {"test_system": "common chickweed (Stellaria media)", "assay": "Preemergence herbicidal activity, chickweed", "assay_type": "in vivo", "details": "Stellaria media, pre-emergence, Rate of Application 0.3 Kg/Ha, examined after 12-17 days, read-out: PREEMERGENCE HERBICIDAL ACTIVITY (% CONTROL) STEME"}, "[7]": {"test_system": "common cocklebur (Xanthium strumarium L.)", "assay": "Preemergence herbicidal activity, cocklebur", "assay_type": "in vivo", "details": "Xanthium strumarium, pre-emergence, Rate of Application 0.3 Kg/Ha, examined after 12-17 days, read-out: PREEMERGENCE HERBICIDAL ACTIVITY (% CONTROL) XANPE"}, "[8]": {"test_system": "blackgrass (Aloepecurus myosuroides)", "assay": "Preemergence herbicidal activity, blackgrass", "assay_type": "in vivo", "details": "Alopecurus myosuroides, pre-emergence, Rate of Application 0.3 Kg/Ha, examined after 12-17 days, read-out: PREEMERGENCE HERBICIDAL ACTIVITY (% CONTROL) ALOMY"}, "[9]": {"test_system": "green foxtail (Setaria viridis)", "assay": "Preemergence herbicidal activity, green foxtail", "assay_type": "in vivo", "details": "Setaria viridis, pre-emergence, Rate of Application 0.3 Kg/Ha, examined after 12-17 days, read-out: PREEMERGENCE HERBICIDAL ACTIVITY (% CONTROL) SETVI"}, "[10]": {"test_system": "Johnsongrass (Sorghum halepense)", "assay": "Preemergence herbicidal activity, johnsongrass", "assay_type": "in vivo", "details": "Sorghum halepense, pre-emergence, Rate of Application 0.3 Kg/Ha, examined after 12-17 days, read-out: PREEMERGENCE HERBICIDAL ACTIVITY (% CONTROL) SORHA"}, "[11]": {"test_system": "soybean (Glycine max var. Winchester)", "assay": "Postemergence herbicidal activity, soybean", "assay_type": "in vivo", "details": "Glycine max, post-emergence, rate of application 0.3 Kg/Ha, rated after 12-17 days, read-out: Postemergence herbicidal activity (% control) SOY"}, "[12]": {"test_system": "wheat (Triticum aestivum var. Lew)", "assay": "Postemergence herbicidal activity, wheat", "assay_type": "in vivo", "details": "Triticum aestivum, post-emergence, rate of application 0.3 Kg/Ha, rated after 12-17 days, read-out: Postemergence herbicidal activity (% control) WHT"}, "[13]": {"test_system": "field corn (Zea mays var. Pioneer 3732)", "assay": "Postemergence herbicidal activity, corn", "assay_type": "in vivo", "details": "Zea mays, post-emergence, rate of application 0.3 Kg/Ha, rated after 12-17 days, read-out: Postemergence herbicidal activity (% control) CRN"}, "[14]": {"test_system": "velvetleaf (Abutilon theophrasti)", "assay": "Postemergence herbicidal activity, velvetleaf", "assay_type": "in vivo", "details": "Abutilon theophrasti, post-emergence, rate of application 0.3 Kg/Ha, rated after 12-17 days, read-out: Postemergence herbicidal activity (% control) ABUTH"}, "[15]": {"test_system": "morningglory (Ipomea lacunosa or Ipomea hederacea)", "assay": "Postemergence herbicidal activity, morningglory", "assay_type": "in vivo", "details": "Ipomoea, post-emergence, rate of application 0.3 Kg/Ha, rated after 12-17 days, read-out: Postemergence herbicidal activity (% control) IPOSS"}, "[16]": {"test_system": "common cocklebur (Xanthium strumarium L.)", "assay": "Postemergence herbicidal activity, cocklebur", "assay_type": "in vivo", "details": "Xanthium strumarium, post-emergence, rate of application 0.3 Kg/Ha, rated after 12-17 days, read-out: Postemergence herbicidal activity (% control) XANPE"}, "[17]": {"test_system": "blackgrass (Aloepecurus myosuroides)", "assay": "Postemergence herbicidal activity, blackgrass", "assay_type": "in vivo", "details": "Alopecurus myosuroides, post-emergence, rate of application 0.3 Kg/Ha, rated after 12-17 days, read-out: Postemergence herbicidal activity (% control) ALOMY"}, "[18]": {"test_system": "green foxtail (Setaria viridis)", "assay": "Postemergence herbicidal activity, green foxtail", "assay_type": "in vivo", "details": "Setaria viridis, post-emergence, rate of application 0.3 Kg/Ha, rated after 12-17 days, read-out: Postemergence herbicidal activity (% control) SETVI"}, "[19]": {"test_system": "Johnsongrass (Sorghum halepense)", "assay": "Postemergence herbicidal activity, johnsongrass", "assay_type": "in vivo", "details": "Sorghum halepense, post-emergence, rate of application 0.3 Kg/Ha, rated after 12-17 days, read-out: Postemergence herbicidal activity (% control) SORHA"}}, "data": [{"smiles": "Cn1c(C(F)(F)F)cc(=O)n(-c2c(F)cc(Cl)c3[nH]c(C(C)(C)C)nc23)c1=O", "note": "[Compound 369, 3-(2-T-BUTYL4-CHLORO-6-FLUOROBENZIMIDAZOL-7-YL)-1-METHYL-6-TRIFLUOROMETHYL-2,4(1H,3H)-PYRIMIDINEDIONE]", "values": [{"measurement": "inhibition at 300 g/ha", "setting": "[1]", "result": 100, "unit": "%"}, {"measurement": "inhibition at 300 g/ha", "setting": "[2]", "result": 100, "unit": "%"}, {"measurement": "inhibition at 300 g/ha", "setting": "[3]", "result": 100, "unit": "%"}, {"measurement": "inhibition at 300 g/ha", "setting": "[4]", "result": 100, "unit": "%"}, {"measurement": "inhibition at 300 g/ha", "setting": "[5]", "result": 100, "unit": "%"}, {"measurement": "inhibition at 300 g/ha", "setting": "[6]", "result": 100, "unit": "%"}, {"measurement": "inhibition at 300 g/ha", "setting": "[7]", "result": 100, "unit": "%"}, {"measurement": "inhibition at 300 g/ha", "setting": "[8]", "result": 100, "unit": "%"}, {"measurement": "inhibition at 300 g/ha", "setting": "[9]", "result": 100, "unit": "%"}, {"measurement": "inhibition at 300 g/ha", "setting": "[10]", "result": 100, "unit": "%"}, {"measurement": "inhibition at 300 g/ha", "setting": "[11]", "result": 100, "unit": "%"}, {"measurement": "inhibition at 300 g/ha", "setting": "[12]", "result": 80, "unit": "%"}, {"measurement": "inhibition at 300 g/ha", "setting": "[13]", "result": 100, "unit": "%"}, {"measurement": "inhibition at 300 g/ha", "setting": "[14]", "result": 100, "unit": "%"}, {"measurement": "inhibition at 300 g/ha", "setting": "[15]", "result": 100, "unit": "%"}, {"measurement": "inhibition at 300 g/ha", "setting": "[16]", "result": 100, "unit": "%"}, {"measurement": "inhibition at 300 g/ha", "setting": "[17]", "result": 100, "unit": "%"}, {"measurement": "inhibition at 300 g/ha", "setting": "[18]", "result": 100, "unit": "%"}, {"measurement": "inhibition at 300 g/ha", "setting": "[19]", "result": 100, "unit": "%"}, {"measurement": "melting point", "result": "125 to 130", "unit": "°C"}]}]}
